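Cultured in 96-well plates, cells were exposed to test compound for 48 hours across five concentrations. At the GI50, growth is halved.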 Active and inactive are the calls of the source. Rule as the data show it: active = GI50 up to about 1.1 µM and inactive = higher.
How the values were obtained:
Assay in all cases: NCI anticancer screen, dose series, 48 h
UO-31 = system: UO-31
CCRF-CEM = system: CCRF-CEM
HCT-116 = system: HCT-116
RPMI-8226 = system: RPMI-8226
SN12C = system: SN12C
SF-295 = system: SF-295
OVCAR-5 = system: OVCAR-5
BT-549 = system: BT-549
MDA-N = system: MDA-N
SNB-19 = system: SNB-19
SR = system: SR
NCI-H460 = system: NCI-H460
DU-145 = system: DU-145
SK-MEL-2 = system: SK-MEL-2
NCI-H23 = system: NCI-H23
NCI-H522 = system: NCI-H522
HOP-92 = system: HOP-92
DMS-273 = system: DMS-273
HCC 2998 = system: HCC 2998
PC-3 = system: PC-3
XF498 = system: XF498
HL-60 = system: HL-60
NCI/ADR-RES = system: NCI/ADR-RES
CAKI-1 = system: CAKI-1
OVCAR-8 = system: OVCAR-8
SNB-78 = system: SNB-78
Malme-3M = system: Malme-3M
786-0 = system: 786-0
DLD-1 = system: DLD-1
KM12 = system: KM12
SF-539 = system: SF-539
MOLT-4 = system: MOLT-4
A549 = system: A549
M14 = system: M14
SNB-75 = system: SNB-75
SK-MEL-5 = system: SK-MEL-5
A498 = system: A498
TK-10 = system: TK-10
UACC-62 = system: UACC-62
HOP-62 = system: HOP-62
MDA-MB-231 = system: MDA-MB-231
K562 = system: K562
HT-29 = system: HT-29
U-251 = system: U-251
SW-620 = system: SW-620
Hs-578T = system: Hs-578T
UACC-257 = system: UACC-257
LOX IMVI = system: LOX IMVI
MCF7 = system: MCF7
OVCAR-3 = system: OVCAR-3
OVCAR-4 = system: OVCAR-4
T47D = system: T47D
MDA-MB-435 = system: MDA-MB-435
IGROV-1 = system: IGROV-1
RXF 393 = system: RXF 393
SK-OV-3 = system: SK-OV-3
HCT-15 = system: HCT-15
NCI-H226 = system: NCI-H226
ACHN = system: ACHN
SF-268 = system: SF-268
HOP-18 = system: HOP-18
SK-MEL-28 = system: SK-MEL-28
EKVX = system: EKVX
COLO 205 = system: COLO 205
LXFL 529 = system: LXFL 529
KM-20L2 = system: KM-20L2
M19-MEL = system: M19-MEL
DMS-114 = system: DMS-114

COc1cc2c(c(OC)c1OC)-c1ccc(SC)c(=O)cc1C(NC(=O)c1ccccc1)CC2 (configuration not stated)
GI50 (UO-31): 272 nM (active)
GI50 (CCRF-CEM): < 10 nM (active)
GI50 (HCT-116): < 10 nM (active)
GI50 (RPMI-8226): < 10 nM (active)
GI50 (SN12C): < 10 nM (active)
GI50 (SF-295): < 10 nM (active)
GI50 (OVCAR-5): 303 nM (active)
GI50 (BT-549): 15600 nM (inactive)
GI50 (MDA-N): < 10 nM (active)
GI50 (SNB-19): < 10 nM (active)
GI50 (SR): < 13.7 nM (active)
GI50 (NCI-H460): < 10 nM (active)
GI50 (DU-145): < 10 nM (active)
GI50 (SK-MEL-2): < 10 nM (active)
GI50 (NCI-H23): 10.7 nM (active)
GI50 (NCI-H522): < 10 nM (active)
GI50 (HOP-92): 11.9 nM (active)
GI50 (DMS-273): < 10 nM (active)
GI50 (HCC 2998): < 10 nM (active)
GI50 (PC-3): < 10 nM (active)
GI50 (XF498): < 60.1 nM (active)
GI50 (HL-60): < 10 nM (active)
GI50 (NCI/ADR-RES): 10.3 nM (active)
GI50 (CAKI-1): < 10 nM (active)
GI50 (OVCAR-8): < 10 nM (active)
GI50 (SNB-78): < 10 nM (active)
GI50 (Malme-3M): < 10 nM (active)
GI50 (786-0): < 10 nM (active)
GI50 (DLD-1): < 10 nM (active)
GI50 (KM12): < 10 nM (active)
GI50 (SF-539): 11.8 nM (active)
GI50 (MOLT-4): < 10 nM (active)
GI50 (A549): < 10 nM (active)
GI50 (M14): < 10 nM (active)
GI50 (SNB-75): 167 nM (active)
GI50 (SK-MEL-5): < 10 nM (active)
GI50 (A498): < 10 nM (active)
GI50 (TK-10): 240 nM (active)
GI50 (UACC-62): < 10 nM (active)
GI50 (HOP-62): < 10 nM (active)
GI50 (MDA-MB-231): < 10 nM (active)
GI50 (K562): < 10 nM (active)
GI50 (HT-29): < 10 nM (active)
GI50 (U-251): < 10 nM (active)
GI50 (SW-620): < 10 nM (active)
GI50 (Hs-578T): < 10 nM (active)
GI50 (UACC-257): 526 nM (active)
GI50 (LOX IMVI): < 10 nM (active)
GI50 (MCF7): < 10 nM (active)
GI50 (OVCAR-3): < 10 nM (active)
GI50 (OVCAR-4): 1450 nM (inactive)
GI50 (T47D): 86300 nM (inactive)
GI50 (MDA-MB-435): < 10 nM (active)
GI50 (IGROV-1): < 10 nM (active)
GI50 (RXF 393): 44.4 nM (active)
GI50 (SK-OV-3): 27 nM (active)
GI50 (HCT-15): < 10 nM
GI50 (NCI-H226): 46.5 nM (active)
GI50 (ACHN): < 10 nM (active)
GI50 (SF-268): < 10 nM (active)
GI50 (HOP-18): 77100 nM (inactive)
GI50 (SK-MEL-28): 305 nM (active)
GI50 (EKVX): 21200 nM (inactive)
GI50 (COLO 205): < 10 nM (active)
GI50 (LXFL 529): < 10 nM (active)
GI50 (KM-20L2): < 10 nM (active)

CC(C)COC(=O)N1N=NC2C3OC(CC3=O)C21 (configuration not stated)
GI50 (UO-31): > 100000 nM (inactive)
GI50 (CCRF-CEM): > 100000 nM (inactive)
GI50 (HCT-116): > 100000 nM (inactive)
GI50 (RPMI-8226): > 100000 nM (inactive)
GI50 (SN12C): > 100000 nM (inactive)
GI50 (SF-295): > 100000 nM (inactive)
GI50 (OVCAR-5): > 100000 nM (inactive)
GI50 (SNB-19): > 100000 nM (inactive)
GI50 (SR): > 100000 nM (inactive)
GI50 (NCI-H460): > 100000 nM (inactive)
GI50 (SK-MEL-2): > 100000 nM (inactive)
GI50 (NCI-H23): > 100000 nM (inactive)
GI50 (NCI-H522): > 100000 nM (inactive)
GI50 (HOP-92): > 100000 nM (inactive)
GI50 (DMS-273): > 100000 nM (inactive)
GI50 (HCC 2998): > 100000 nM (inactive)
GI50 (XF498): > 100000 nM (inactive)
GI50 (HL-60): > 100000 nM (inactive)
GI50 (CAKI-1): > 100000 nM (inactive)
GI50 (OVCAR-8): > 100000 nM (inactive)
GI50 (Malme-3M): > 100000 nM (inactive)
GI50 (786-0): > 100000 nM (inactive)
GI50 (DLD-1): > 100000 nM (inactive)
GI50 (KM12): > 100000 nM (inactive)
GI50 (SF-539): > 100000 nM (inactive)
GI50 (MOLT-4): > 100000 nM (inactive)
GI50 (M14): > 100000 nM (inactive)
GI50 (SNB-75): > 100000 nM (inactive)
GI50 (M19-MEL): > 100000 nM (inactive)
GI50 (SK-MEL-5): > 100000 nM (inactive)
GI50 (A498): > 100000 nM (inactive)
GI50 (TK-10): > 100000 nM (inactive)
GI50 (UACC-62): 43600 nM (inactive)
GI50 (HOP-62): > 100000 nM (inactive)
GI50 (K562): > 100000 nM (inactive)
GI50 (HT-29): > 100000 nM (inactive)
GI50 (U-251): > 100000 nM (inactive)
GI50 (SW-620): > 100000 nM (inactive)
GI50 (UACC-257): > 100000 nM (inactive)
GI50 (DMS-114): > 100000 nM (inactive)
GI50 (LOX IMVI): > 100000 nM (inactive)
GI50 (OVCAR-3): > 100000 nM (inactive)
GI50 (OVCAR-4): > 100000 nM (inactive)
GI50 (IGROV-1): > 31600 nM (inactive)
GI50 (RXF 393): > 100000 nM (inactive)
GI50 (SK-OV-3): 40400 nM (inactive)
GI50 (HCT-15): > 100000 nM
GI50 (NCI-H226): > 100000 nM (inactive)
GI50 (ACHN): > 100000 nM (inactive)
GI50 (SF-268): > 100000 nM (inactive)
GI50 (HOP-18): > 100000 nM (inactive)
GI50 (SK-MEL-28): > 100000 nM (inactive)
GI50 (EKVX): > 100000 nM (inactive)
GI50 (COLO 205): > 100000 nM (inactive)
GI50 (LXFL 529): > 100000 nM (inactive)
GI50 (KM-20L2): > 100000 nM (inactive)

Source: ChEMBL document CHEMBL1201862, “PubChem BioAssay data set” (2004)
